Data taken from patent US20060275505A1, “Method and composition for increasing the alkalinity of the body” (priority 2005, published 2006).

System: acid reflux
Test: Example 13 case study, acid reflux
Format: in vivo, human
Settings: patient history
Source text: A person had suffered from acid reflux for two years. The reflux was severe enough to wake them once or twice every night, and they slept in an inclined bed. […] The patient drank a small glass of water with Alka Vita each night.

COc1cc(N)c(Cl)cc1C(=O)NC1CCN(CCCOc2ccc(F)cc2)CC1OC (stereo not shown) [Propulsid]
relief of acid reflux by drugs tried before: no relief

COc1ccc2[nH]c([S+]([O-])Cc3ncc(C)c(OC)c3C)nc2c1 (stereo not shown) [Prilosec]
relief of acid reflux by drugs tried before: no relief

NC(N)=Nc1nc(CSCCC(N)=NS(N)(=O)=O)cs1 [Pepcid AC]
relief of acid reflux by drugs tried before: no relief

COc1ccc2[nH]c([S@@+]([O-])Cc3ncc(C)c(OC)c3C)nc2c1 [Nexium]
relief of acid reflux by drugs tried before: no relief
